Assay [1] has as its target hGYS2 enzyme (recombinant hGYS2/GN1 protein) (Homo sapiens (Human), UniProt P54840). The experiment in a line: GYS2 coupled enzyme assay (PK/LDH). Format: biochemical. The conditions noted are these: geometric mean of at least 2 assay runs on separate days, read-out: Avg_IC50. The essentials: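 Read-out: NADH loss at 340 nm, read each minute for 10 min, slope normalized to controls, duplicate % inhibition fit to Hill (0–100). Enzyme: 200 nM hGYS2/GN1; substrate 2 mM UDP-glucose plus 0.2% glycogen and 2 mM G6P; pH 7.5 Tris, 2.5% DMSO.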

Assay [2] has as its target hGYS1 enzyme (recombinant hGYS1/GN1 protein) (Homo sapiens (Human), UniProt P13807). The experiment in a line: GYS1 coupled enzyme assay (PK/LDH). Format: biochemical. Conditions: hGYS1/GN1 50 nM, UDP-Glucose 0.8 mM, G6P 1 mM; geometric mean of at least 2 runs.

Molecules are shown by their SMILES.

Sequence of hGYS1 enzyme (recombinant hGYS1/GN1 protein) (P13807 whole entry): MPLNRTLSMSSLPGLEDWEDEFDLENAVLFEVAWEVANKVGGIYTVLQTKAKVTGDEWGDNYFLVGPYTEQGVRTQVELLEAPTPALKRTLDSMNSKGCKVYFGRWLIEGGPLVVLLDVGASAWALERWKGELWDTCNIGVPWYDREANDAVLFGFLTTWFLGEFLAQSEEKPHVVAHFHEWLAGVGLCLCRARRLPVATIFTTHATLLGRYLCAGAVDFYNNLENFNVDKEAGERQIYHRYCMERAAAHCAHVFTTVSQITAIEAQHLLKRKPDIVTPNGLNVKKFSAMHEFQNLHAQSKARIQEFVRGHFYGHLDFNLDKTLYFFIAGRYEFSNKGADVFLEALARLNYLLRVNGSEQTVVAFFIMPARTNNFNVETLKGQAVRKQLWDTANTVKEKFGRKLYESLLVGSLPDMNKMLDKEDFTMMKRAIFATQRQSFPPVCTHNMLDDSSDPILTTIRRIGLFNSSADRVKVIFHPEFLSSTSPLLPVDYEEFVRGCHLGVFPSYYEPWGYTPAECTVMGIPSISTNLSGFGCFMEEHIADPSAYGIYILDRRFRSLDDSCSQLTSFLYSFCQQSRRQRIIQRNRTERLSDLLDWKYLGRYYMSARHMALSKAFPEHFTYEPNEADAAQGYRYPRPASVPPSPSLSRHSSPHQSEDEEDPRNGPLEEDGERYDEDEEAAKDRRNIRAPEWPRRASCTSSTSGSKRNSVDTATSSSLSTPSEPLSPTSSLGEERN
Sequence of hGYS1 enzyme (recombinant hGYS1/GN1 protein) (P46976 whole entry partner): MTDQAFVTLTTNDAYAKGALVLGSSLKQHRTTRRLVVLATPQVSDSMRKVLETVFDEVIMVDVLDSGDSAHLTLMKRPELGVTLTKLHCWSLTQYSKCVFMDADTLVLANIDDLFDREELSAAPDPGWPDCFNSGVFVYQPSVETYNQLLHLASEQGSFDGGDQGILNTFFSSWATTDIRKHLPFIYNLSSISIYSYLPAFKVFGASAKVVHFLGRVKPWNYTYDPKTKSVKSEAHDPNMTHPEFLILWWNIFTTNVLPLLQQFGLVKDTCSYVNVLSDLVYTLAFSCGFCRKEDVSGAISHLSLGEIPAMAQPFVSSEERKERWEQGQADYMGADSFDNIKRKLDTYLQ
Sequence of hGYS2 enzyme (recombinant hGYS2/GN1 protein) (P54840 whole entry): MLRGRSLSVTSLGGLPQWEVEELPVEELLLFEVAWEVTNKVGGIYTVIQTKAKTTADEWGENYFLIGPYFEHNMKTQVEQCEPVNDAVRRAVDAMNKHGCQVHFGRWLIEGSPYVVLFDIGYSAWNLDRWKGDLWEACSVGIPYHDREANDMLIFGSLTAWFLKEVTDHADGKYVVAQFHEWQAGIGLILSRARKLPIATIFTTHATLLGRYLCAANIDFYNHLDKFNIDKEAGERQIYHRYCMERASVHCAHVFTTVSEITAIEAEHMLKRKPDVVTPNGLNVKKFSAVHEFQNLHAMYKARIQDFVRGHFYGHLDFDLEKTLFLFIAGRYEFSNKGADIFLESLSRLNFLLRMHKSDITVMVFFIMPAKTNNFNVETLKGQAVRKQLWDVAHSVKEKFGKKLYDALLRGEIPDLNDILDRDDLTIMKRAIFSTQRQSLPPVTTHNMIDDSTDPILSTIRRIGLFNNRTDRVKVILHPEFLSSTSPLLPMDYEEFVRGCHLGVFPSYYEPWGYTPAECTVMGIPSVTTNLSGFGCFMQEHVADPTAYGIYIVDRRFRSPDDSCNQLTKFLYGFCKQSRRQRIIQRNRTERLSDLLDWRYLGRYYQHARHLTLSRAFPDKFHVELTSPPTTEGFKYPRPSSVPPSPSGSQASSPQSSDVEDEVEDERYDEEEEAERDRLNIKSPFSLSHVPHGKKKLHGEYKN
Sequence of hGYS2 enzyme (recombinant hGYS2/GN1 protein) (P46976 whole entry partner): as the sequence (P46976 whole entry partner) above

With `O=C(N[C@@H](c1ccccc1)c1ccc(C2CC2)c(F)c1)[C@@H]1C[C@@H](F)CN1C(=O)Cc1nnc(C(F)(F)F)o1` [Compound 428, (2S,4R)-N-[(S)-(4-cyclopropyl-3-fluorophenyl)(phenyl)methyl]-4-fluoro-1-{2-[5-(trifluoromethyl)-1,3,4-oxadiazol-2-yl]acetyl}pyrrolidine-2-carboxamide], the figures for the IC50 in assay [1] and in assay [2] were over 100 µM and 0.374 µM, respectively.
With `Cc1nc(CC(=O)N2C[C@H](F)C[C@H]2C(=O)N[C@@H](c2ccccc2)c2ccc(C(C)C)cc2)c(C)s1` [Compound 69, (2S,4R)-1-[2-(2,5-dimethyl-1,3-thiazol-4-yl)acetyl]-4-fluoro-N-[(S)-phenyl[4-(propan-2-yl)phenyl]methyl]pyrrolidine-2-carboxamide], the figures for the IC50 in assay [1] and in assay [2] were over 100 µM and 0.036 µM, respectively.
On to `CC(=O)N1CC(C)(C(=O)N2C[C@H](F)C[C@H]2C(=O)N[C@@H](c2ccccc2)c2ccc(C(C)C)cc2)C1` [Compound 146, (2S,4R)-1-(1-acetyl-3-methylazetidine-3-carbonyl)-4-fluoro-N-[(S)-phenyl[4-(propan-2-yl)phenyl]methyl]pyrrolidine-2-carboxamide], for which the results for the IC50 in assay [1] and in assay [2] were over 100 µM and 0.206 µM, respectively.
With `CC(C)c1ccc([C@@H](NC(=O)[C@@H]2C[C@@H](F)CN2C(=O)Cc2nn[nH]n2)c2ccccc2)cc1` (stereo in doubt) [Compound 223, (2RS,4R)-4-fluoro-N-[(S)-phenyl[4-(propan-2-yl)phenyl]methyl]-1-[2-(2H-1,2,3,4-tetrazol-5-yl)acetyl]pyrrolidine-2-carboxamide], the IC50 is over 100 µM in assay [1] and 0.062 µM in assay [2].
As for `CC(C)c1ccc([C@@H](NC(=O)[C@@H]2C[C@@H](F)CN2C(=O)C2(C)COC2)c2ccccc2)cc1` [Compound 25, (2S,4R)-4-fluoro-1-(3-methyloxetane-3-carbonyl)-N-[(S)-phenyl[4-(propan-2-yl)phenyl]methyl]pyrrolidine-2-carboxamide], the IC50 in assay [1] was over 100 µM; in assay [2] it was 0.235 µM.
In the same order, the values of `CC(=O)N[C@@H](CC(N)=O)C(=O)N1C[C@H](F)C[C@H]1C(=O)N[C@@H](c1ccccc1)c1ccc(C(C)C)c(F)c1` [Compound 765, (2S,4R)-1-[(2S)-3-carbamoyl-2-acetamidopropanoyl]-4-fluoro-N-[(S)-[3-fluoro-4-(propan-2-yl)phenyl](phenyl)methyl] pyrrolidine-2-carboxamide] are over 100 µM and 0.047 µM.
Turning to `CC(=O)N[C@H](CC(N)=O)C(=O)N1C[C@H](F)C[C@H]1C(=O)N[C@@H](c1ccccc1)c1ccc(C(C)C)cc1` [Compound 209, (2S,4R)-1-[(2R)-3-carbamoyl-2-acetamidopropanoyl]-4-fluoro-N-[(S)-phenyl[4-(propan-2-yl)phenyl]methyl]pyrrolidine-2-carboxamide], the IC50 is over 100 µM in assay [1] and 0.091 µM in assay [2].
Regarding `CC(C)c1ccc([C@@H](NC(=O)[C@@H]2C[C@@H](F)CN2C(=O)CCC(=O)N2CCCC2)c2ccccc2)cc1` [Compound 108, (2S,4R)-4-fluoro-1-[4-oxo-4-(pyrrolidin-1-yl)butanoyl]-N-[(S)-phenyl[4-(propan-2-yl)phenyl]methyl]pyrrolidine-2-carboxamide], the results for the IC50 in assay [1] and in assay [2] were over 100 µM and 0.077 µM, respectively.
In the same order, the values of `Cc1nc(CC(=O)N2C[C@H](F)C[C@H]2C(=O)N[C@@H](c2ccccc2)c2ccc(C(C)C)cc2)no1` [Compound 29, (2S,4R)-4-fluoro-1-[2-(5-methyl-1,2,4-oxadiazol-3-yl)acetyl]-N-[(S)-phenyl[4-(propan-2-yl)phenyl]methyl]pyrrolidine-2-carboxamide] are over 100 µM and 0.07 µM.
Turning to `CC(=O)N1CCC[C@@H](CC(=O)N2C[C@H](F)C[C@H]2C(=O)N[C@@H](c2ccccc2)c2ccc(C(C)C)cc2)C1` [Compound 171, (2S,4R)-1-{2-[(3S)-1-acetylpiperidin-3-yl]acetyl}-4-fluoro-N-[(S)-phenyl[4-(propan-2-yl)phenyl]methyl]pyrrolidine-2-carboxamide], the IC50 was over 100 µM in assay [1] and 0.097 µM in assay [2].
In the same order, the values of `COc1ccccc1[C@H](NC(=O)[C@@H]1CCCN1C(C)=O)c1ccc(C(C)C)cc1` [Compound 639, (2S)-1-acetyl-N-[(R)-(2-methoxyphenyl)[4-(propan-2-yl)phenyl]methyl] pyrrolidine-2-carboxamide] are over 100 µM and 0.921 µM.
For `CC(=O)N1CCCC1CCC(=O)N1C[C@H](F)C[C@H]1C(=O)N[C@@H](c1ccccc1)c1ccc(C(C)C)cc1` (stereo partly drawn) [Compound 172, (2S,4R)-1-[3-(1-acetylpyrrolidin-2-yl)propanoyl]-4-fluoro-N-[(S)-phenyl[4-(propan-2-yl)phenyl]methyl]pyrrolidine-2-carboxamide], the values for the IC50 in assay [1] and in assay [2] were over 100 µM and 0.255 µM, respectively.
With `CC(C)c1ccc([C@@H](NC(=O)[C@@H]2C[C@@H](F)CN2C(=O)Cc2cnn[nH]2)c2cccc(F)c2)cc1F` [Compound 645, (2S,4R)-4-fluoro-N-[(S)-[3-fluoro-4-(propan-2-yl)phenyl](3-fluoropheny)methyl]-1-[2-(1H-1,2,3-triazol-5-yl)acetyl]pyrrolidine-2-carboxamide], the values for the IC50 in assay [1] and in assay [2] were over 100 µM and 0.1 µM, respectively.
For `CC(C)c1ccc([C@@H](NC(=O)[C@@H]2C[C@@H](F)CN2C(=O)CNC(=O)C(F)(F)F)c2ccccc2)cc1` [Compound 187, (2S,4R)-4-fluoro-N-[(S)-phenyl[4-(propan-2-yl)phenyl]methyl]-1-[2-(2,2,2-trifluoroacetamido)acetyl] pyrrolidine-2-carboxamide], the IC50 was over 100 µM in assay [1] and 0.073 µM in assay [2].
On to `CC(C)c1ccc([C@@H](NC(=O)[C@@H]2C[C@@H](F)CN2C(=O)Cc2ccc3ncccc3c2)c2ccccc2)cc1` [Compound 96, (2S,4R)-4-fluoro-N-[(S)-phenyl[4-(propan-2-yl)phenyl]methyl]-1-[2-(quinolin-6-yl)acetyl]pyrrolidine-2-carboxamide], for which the IC50 in assay [1] is over 100 µM; in assay [2], 0.021 µM.
As for `CC(C)c1ccc([C@@H](NC(=O)[C@@H]2C[C@@H](F)CN2C(=O)CCc2c[nH]c3ccccc23)c2ccccc2)cc1` [Compound 109, (2S,4R)-4-fluoro-1-[3-(1H-indol-3-yl)propanoyl]-N-[(S)-phenyl[4-(propan-2-yl)phenyl]methyl]pyrrolidine-2-carboxamide], the IC50 was over 100 µM in assay [1] and 0.041 µM in assay [2].
Take `CC(C)c1ccc([C@@H](NC(=O)[C@@H]2C[C@@H](F)CN2C(=O)CNC(=O)N2CC(C(F)(F)F)C2)c2ccccc2)nc1` [Compound 291, (2S,4R)-4-fluoro-N-[(S)-phenyl[5-(propan-2-yl)pyridin-2-yl]methyl]-1-(2-{[3-(trifluoromethyl)azetidin-1-carbonyl]amino}acetyl) pyrrolidine-2-carboxamide]: the IC50 is over 100 µM in assay [1] and 0.053 µM in assay [2].
On to `CC(C)c1ccc([C@@H](NC(=O)[C@@H]2C[C@@H](F)CN2C(=O)Cn2cn[nH]c2=O)c2ccccc2)nc1` [Compound 288, (2S,4R)-4-fluoro-1-[2-(5-oxo-4,5-dihydro-1H-1,2,4-triazol-4-yl)acetyl]-N-[(S)-phenyl[5-(propan-2-yl)pyridin-2-yl]methyl]pyrrolidine-2-carboxamide], for which the IC50 in assay [1] is over 100 µM; in assay [2] it was 0.109 µM.

The values above are taken from patent publication US11814367B2, “Inhibitors of glycogen synthase 1 (GYS1) and methods of use thereof” (Maze Therapeutics, Inc., priority 2021, dated 2023).
